Molecular target: 4-hydroxyphenylpyruvate dioxygenase (Homo sapiens, UniProt P32754)
Assay: Inhibition of human recombinant His-tagged HPPD expressed in Escherichia coli BL21(DE3) by UV/visible plate reader analysis

Chain of 4-hydroxyphenylpyruvate dioxygenase (P32754 whole entry): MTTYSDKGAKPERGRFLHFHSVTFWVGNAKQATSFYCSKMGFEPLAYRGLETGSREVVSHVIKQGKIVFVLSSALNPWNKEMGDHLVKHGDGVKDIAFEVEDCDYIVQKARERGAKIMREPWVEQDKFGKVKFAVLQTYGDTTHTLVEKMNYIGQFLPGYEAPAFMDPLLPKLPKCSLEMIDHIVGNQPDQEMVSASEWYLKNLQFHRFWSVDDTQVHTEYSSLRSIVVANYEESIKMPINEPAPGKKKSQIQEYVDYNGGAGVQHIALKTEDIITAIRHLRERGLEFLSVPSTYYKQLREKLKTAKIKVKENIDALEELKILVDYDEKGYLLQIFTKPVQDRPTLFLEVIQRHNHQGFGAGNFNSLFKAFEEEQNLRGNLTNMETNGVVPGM

Structure (SMILES)	IC50
CCCCn1c(=O)n(C)c2ccc(C(=O)c3cnn(C)c3O)cc21	170 nM
Cn1ncc(C(=O)c2ccc3c(c2)n(C(C)(C)C)c(=O)n3C)c1O	100 nM
Cc1ccc(-n2c(=O)n(C)c3ccc(C(=O)c4cnn(C)c4O)cc32)cc1	250 nM
CCCn1c(=O)n(CC)c2cc(C(=O)c3cnn(C)c3O)ccc21	39 nM
Cc1nn(C)c(O)c1C(=O)c1ccc2c(c1)n(CC(C)C)c(=O)n2C	2710 nM
Cc1nn(C)c(O)c1C(=O)c1ccc2c(c1)n(Cc1ccccc1)c(=O)n2C	670 nM

From ChEMBL document CHEMBL3407412, “Synthesis and bioevaluation of pyrazole-benzimidazolone hybrids as novel human 4-Hydroxyphenylpyruvate dioxygenase inhibitors” (Eur J Med Chem, 2015)
